Where two headings read alike, the source gives them in different places.
What was measured:
human α1A‐adrenoceptor [1] = biological target: T1, human α1A‐adrenoceptor (Homo sapiens, UniProt P35348); experiment: ^3H‐prazosin whole‐cell radioligand binding, CHO‐α1A cells
T1 construct: expressed in transfected cells; host or cells: CHO-K1
T1 sequence (P35348 1-466): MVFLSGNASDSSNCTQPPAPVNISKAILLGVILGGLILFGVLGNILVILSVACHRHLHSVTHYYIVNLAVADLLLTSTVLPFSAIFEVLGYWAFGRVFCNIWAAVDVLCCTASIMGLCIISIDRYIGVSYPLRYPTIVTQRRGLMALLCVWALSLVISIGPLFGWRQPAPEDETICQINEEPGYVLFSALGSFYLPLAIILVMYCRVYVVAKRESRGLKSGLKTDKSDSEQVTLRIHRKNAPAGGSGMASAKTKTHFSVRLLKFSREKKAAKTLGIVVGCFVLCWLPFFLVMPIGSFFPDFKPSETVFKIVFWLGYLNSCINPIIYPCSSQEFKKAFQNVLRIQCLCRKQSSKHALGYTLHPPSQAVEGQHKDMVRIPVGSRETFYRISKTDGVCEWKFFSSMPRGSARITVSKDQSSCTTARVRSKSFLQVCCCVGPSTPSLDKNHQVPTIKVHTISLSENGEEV

human α1B‐adrenoceptor [2] = biological target: T2, human α1B‐adrenoceptor (Homo sapiens, UniProt P35368); experiment: ERK1/2‐phosphorylation (Surefire Alphascreen), CHO‐α1B cells; format: cell-based
T2 construct: expressed in transfected cells; host or cells: CHO-K1
T2 sequence (P35368 1-520): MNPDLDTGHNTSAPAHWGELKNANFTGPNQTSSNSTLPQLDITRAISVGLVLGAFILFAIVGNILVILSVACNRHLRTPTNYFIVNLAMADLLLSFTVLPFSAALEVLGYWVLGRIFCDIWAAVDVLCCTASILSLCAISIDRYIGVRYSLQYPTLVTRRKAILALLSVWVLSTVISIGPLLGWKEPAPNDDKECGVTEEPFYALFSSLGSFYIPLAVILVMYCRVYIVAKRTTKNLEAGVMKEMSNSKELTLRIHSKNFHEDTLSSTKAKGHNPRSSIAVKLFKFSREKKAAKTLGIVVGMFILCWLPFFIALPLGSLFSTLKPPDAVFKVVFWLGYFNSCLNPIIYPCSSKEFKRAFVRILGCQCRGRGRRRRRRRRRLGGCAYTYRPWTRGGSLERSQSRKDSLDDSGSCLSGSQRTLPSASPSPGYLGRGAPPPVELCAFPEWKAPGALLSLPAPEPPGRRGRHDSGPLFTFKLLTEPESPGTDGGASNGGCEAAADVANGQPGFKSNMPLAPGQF

human α1A‐adrenoceptor [3] = biological target: T1, human α1A‐adrenoceptor; experiment: Intracellular free calcium mobilization, CHO‐α1A cells; format: cell-based
human α1A‐adrenoceptor [4] = biological target: T1, human α1A‐adrenoceptor; experiment: ^3H‐cAMP accumulation, CHO‐α1A cells; format: cell-based; conditions: CHO‐α1A cells
human α1A‐adrenoceptor [5] = biological target: T1, human α1A‐adrenoceptor; experiment: ERK1/2‐phosphorylation (Surefire Alphascreen), CHO‐α1A cells; format: cell-based
[6] = biological target: T3, human α1D‐adrenoceptor (full length) (Homo sapiens, UniProt P25100); experiment: Intracellular free calcium mobilization, CHO‐α1D cells; format: cell-based
T3 construct: human α1D‐adrenoceptor (full length) were used; expressed in transfected cells; host or cells: CHO-K1
T3 sequence (P25100 1-572): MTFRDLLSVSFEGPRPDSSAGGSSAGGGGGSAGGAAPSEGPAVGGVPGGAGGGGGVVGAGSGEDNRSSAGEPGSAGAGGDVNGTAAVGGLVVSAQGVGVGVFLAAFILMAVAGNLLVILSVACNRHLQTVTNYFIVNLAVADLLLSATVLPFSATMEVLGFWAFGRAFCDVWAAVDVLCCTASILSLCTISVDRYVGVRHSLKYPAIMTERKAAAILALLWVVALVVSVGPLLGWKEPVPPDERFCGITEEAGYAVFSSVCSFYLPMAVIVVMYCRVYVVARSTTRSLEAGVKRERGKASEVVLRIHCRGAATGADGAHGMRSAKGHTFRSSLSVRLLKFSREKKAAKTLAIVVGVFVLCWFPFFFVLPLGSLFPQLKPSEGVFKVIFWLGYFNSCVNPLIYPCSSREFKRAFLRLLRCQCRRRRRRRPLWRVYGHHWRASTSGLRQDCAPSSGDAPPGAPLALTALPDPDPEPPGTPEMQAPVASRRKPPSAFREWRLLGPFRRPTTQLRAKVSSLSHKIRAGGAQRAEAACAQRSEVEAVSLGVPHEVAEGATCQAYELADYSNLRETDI

[7] = biological target: T3, human α1D‐adrenoceptor (full length); experiment: ERK1/2‐phosphorylation (Surefire Alphascreen), CHO‐α1D cells; format: cell-based
human α1A‐adrenoceptor [8] = biological target: T1, human α1A‐adrenoceptor; experiment: ^3H‐cAMP accumulation in the presence of 10 μM forskolin, CHO‐α1A cells; format: cell-based
[9] = tested on: parental CHO cell line without any transfected receptors; experiment: Forskolin‐stimulated cAMP accumulation, parent CHO cells without transfected receptors; format: cell-based, Chinese hamster; conditions: CHO cells without transfected receptors
human α1B‐adrenoceptor [10] = biological target: T2, human α1B‐adrenoceptor; experiment: Intracellular free calcium mobilization, CHO‐α1B cells; format: cell-based
[11] = tested on: parental CHO cell line without any transfected receptors; experiment: ERK1/2‐phosphorylation, parent CHO cells without transfected receptors; format: cell-based, Chinese hamster; conditions: for ERK1/2-phosphorylation % PDBu: CHO cells without transfected receptors, maximal response as % of PDBu (10μM) response, mean ± s.e.m.
human α1B‐adrenoceptor [12] = biological target: T2, human α1B‐adrenoceptor; experiment: ^3H‐cAMP accumulation, CHO‐α1B cells; format: cell-based; conditions: CHO‐α1B cells
human α1B‐adrenoceptor [13] = biological target: T2, human α1B‐adrenoceptor; experiment: ^3H‐prazosin whole‐cell radioligand binding, CHO‐α1B cells
[14] = biological target: T3, human α1D‐adrenoceptor (full length); experiment: ^3H‐prazosin whole‐cell radioligand binding, CHO‐α1D cells

CNCC(O)c1ccc(O)cc1 (stereo not shown) [Synephrine] was tested, and the Kd (human α1A‐adrenoceptor [1]) was 55 µM, the “ERK1/2‐phosphorylation % PDBu” value (human α1B‐adrenoceptor [2]) was 95.1 ± 8.7% and the EC50 (human α1A‐adrenoceptor [3]) was 219 nM. For the same compound, the “Intracellular calcium release % ionomycin” value (human α1A‐adrenoceptor [3]) was 55.4 ± 1.9%, the “cAMP accumulation % forskolin at 100 µM” value (human α1A‐adrenoceptor [4]; response at 100 μM ligand, no EC50 obtained) was 25.4 ± 3.4% and the EC50 (human α1A‐adrenoceptor [5]) was 603 nM. For the same compound, the “ERK1/2‐phosphorylation % PDBu” value (human α1A‐adrenoceptor [5]) was 87.4 ± 8.6%, the “Intracellular calcium release % ionomycin” value [6] was 16.3 ± 2.9% and the “ERK1/2‐phosphorylation % PDBu” value [7] was 14.5 ± 2.8%. The EC50 (human α1A‐adrenoceptor [8]) was 7.08 µM, the “cAMP accumulation (in presence of forskolin) Log EC50” value [9] was “No response” and the “Intracellular calcium release % ionomycin” value (human α1B‐adrenoceptor [10]) was 57.5 ± 1.9%. The “ERK1/2-phosphorylation % PDBu” value [11] was “No response” and the “cAMP accumulation % forskolin at 100 µM” value (human α1B‐adrenoceptor [12]; response at 100 µM ligand (no EC50 given)) was 23.2 ± 2.5%.

CN1C[C@H](C(=O)N[C@]2(C)O[C@@]3(O)[C@@H]4CCCN4C(=O)[C@H](Cc4ccccc4)N3C2=O)C[C@@H]2c3cccc4[nH]cc(c34)C[C@H]21 [Dihydroergotamine] was tested, and the “Affinity selectivity ratio α1A vs α1B” value (human α1A‐adrenoceptor [1]) was 50.1 fold, the “Affinity selectivity ratio α1A vs α1D” value (human α1A‐adrenoceptor [1]) was 26.9 fold and the Kd (human α1A‐adrenoceptor [1]) was 0.0024 µM. The “ERK1/2‐phosphorylation % PDBu” value (human α1B‐adrenoceptor [2]) was 50.1 ± 4.8%, the “Intracellular calcium release % ionomycin at 10 µM” value (human α1A‐adrenoceptor [3]) was 10.0 ± 3.1% and the “cAMP accumulation Log EC50” value (human α1A‐adrenoceptor [4]; 5 h) was “No response”. For the same compound, the “cAMP accumulation % forskolin” value (human α1A‐adrenoceptor [4]; % of 10 µM forskolin response) was “No response”, the “ERK1/2‐phosphorylation % PDBu” value (human α1A‐adrenoceptor [5]) was 57.2 ± 4.6% and the “Intracellular calcium release % ionomycin” value [6] was “No response”. The “Intracellular calcium release Log EC50” value [6] was “No response”, the “ERK1/2‐phosphorylation % PDBu” value [7] was 32.9 ± 3.5% and the “cAMP accumulation (in presence of forskolin) Log EC50” value (human α1A‐adrenoceptor [8]; CHO‐α1A cells, 10 μM forskolin) was “No response”. The “cAMP accumulation (in presence of forskolin) Fold increase” value (human α1A‐adrenoceptor [8]; CHO‐α1A cells, fold increase of the forskolin response) was “No response”, the “cAMP accumulation (in presence of forskolin) % forskolin-stim cAMP at 10μM” value ([9]; response at 10μM only, EC50 not obtainable, % of forskolin-stimulated cAMP) was 77.4 ± 1.9% and the Kd (human α1B‐adrenoceptor [13]) was 120 nM. For the same compound, the “Intracellular calcium release % ionomycin at 10 µM” value (human α1B‐adrenoceptor [10]) was 6.4 ± 2.1%, the Emax ([11]; Cricetulus griseus, CHO, read-out: ERK1/2-phosphorylation % PDBu) was 35.9 ± 4.2% and the EC50 ([11]; Cricetulus griseus, CHO, read-out: ERK1/2-phosphorylation Log EC50 (converted)) was 2.24 nM. For the same compound, the “ERK1/2‐phosphorylation response in parent CHO cells” value ([11]; untransfected cells) was “stimulated ERK1/2‐phosphorylation responses”, the “Affinity selectivity ratio α1B vs α1D” value [14] was 1.9 fold and the Kd [14] was 64.6 nM.

For NCCc1ccc(O)c(O)c1 [Dopamine], the “ERK1/2‐phosphorylation % PDBu” value (human α1B‐adrenoceptor [2]; CHO‐α1B cells, maximal response as % PDBu response, for bi‐phasic responses the initial stimulatory part) was 85.8 ± 6.0%, the “cAMP accumulation (in presence of forskolin) Log EC50” value [9] was “No response” and the “Intracellular calcium release % ionomycin” value (human α1B‐adrenoceptor [10]; CHO‐α1B cells, maximal response as % of 10 µM ionomycin response) was 62.5 ± 2.9%. For the same compound, the “ERK1/2-phosphorylation % PDBu” value [11] was “No response” and the “cAMP accumulation % forskolin” value (human α1B‐adrenoceptor [12]; % forskolin maximum response) was 53.0 ± 7.5%.
